Reference: patent US20130210034A1, “COMPLEX PHOSPHOPROTEIN ACTIVATION PROFILES” (BECKMAN COULTER, INC., priority 2005, published 2013)

Experiments:
pERK = assay: Cytokine-stimulated phosphorylation in AML cell populations (BM or PB of AML patients); type: cell-based, human
Experimental: To assess the signal transduction response after growth factor simulation, a series comprising two sets of tubes including about 3×10^6 cells/100 μL were incubated at 37° C. for 30 minutes. After this pre-incubation period, tubes with then processes with either a stimulant or inhibitor. […] To examine the effects of protein phosphorylation inhibition, tubes were incubated with an inhibitor cocktail comprising 100 μM/100 μL UO126, 1 μM/100 μL LY294002, and 1 μM/100 μL rapamycin. One unstimulated tube receiving no stimulant or inhibitor was processed to assess basal levels of phospho-protein expression. After stimulation the cells were immediately fixed in 10% formaldehyde solution at 37° C. Pre-labeling with CD13, CD16 and CD64 antibodies was carried out 20 minutes prior to formaldehyde fixation. After fixation, one set of tubes was permeabilized without methanol for pAKT, pERK and pS6 staining and the other for 80% methanol permeabilized for pSTAT3 and pSTAT5 staining. After permeablization, the cells were washed in PBS with 2% BSA and blocked by re-suspended in 75 μL of PBS comprising 25% heat inactivated normal mouse serum, 25% normal rabbit serum. To stain cells with fluorescent conjugated monoclonal antibodies, samples were incubated on ice for 45 minutes in 100 μL of an antibody staining solution including either: 1) CD15-Pacific Orange, CD34-Phycoerythrin-Texas Red, CD117-Phycoerythrin-Cyanin 5.5, CD45-Allophycocyanin-Alexa Fluor 750 (or CD45-Pacific Orange, in which case CD15-Pacific Orange was omitted), pS6-Pacific Blue, pERK-Alexa Fluor 488 and pAKT-Alexa Fluor 647 or 2) CD15-Pacific Orange, CD34-Phycoerythrin-Texas Red, CD117-Phycoerythrin-Cyanin 5.5, CD45-Allophycocyanin-Alexa Fluor 750 or CD45-Pacific Blue, pSTAT3-Alexa Fluor 488 and pSTAT5-Phycoerythrin. The stained cells were washed twice with ice cold PBS containing 2% BSA and centrifuged at 800 g for 6 minutes at 4° C. The supernatant was discarded and cells re-suspended in 250 μL of chilled wash buffer for data acquisition. Stained cells were examined using either GALIOS flow cytometer (Beckman Coulter) or CYAN ADP (Beckman Coulter) equipped with 488 nm, 405 nm and 635 nm lasers to detect the degree of fluorescence. Data were analyzed using FCS Express (De Novo Software, CA) analysis software.
Specific phosphoprotein expression of pERK, pS6, pAKT, pSTAT5, and pSTAT3 was examined in seven discrete phenotypically defined populations based on 7-color immunophenotyping (FIG. 1). The percent of responding (phosphorprotein positive) cells for each of these populations was determined from individual single parameter histograms based on a fixed integration region set on the inhibitor treated control at about 3% positives.
Using normal BM signaling profiles of Example 1 as comparison, analysis of 14 AML samples was carried out to identify differences in signaling responses. White blood cells from BM or peripheral blood (PB) samples were obtained from 14 diagnosed AML patients undergoing routine clinical flow cytometry analysis using IRB approved protocols. The AML patients included newly diagnosed AML, AMLs arising in a background of MDS, therapy related AMLs and previously diagnosed AML post therapy. The median age of the patients at diagnosis was 51 years (range: 29-75 years) and represented 5 female and 9 male patients. The median white blood cell was 6.4 million/mL (range: 0.9-106 M/mL) and the BM morphologic blast count was an average of 46% (range: 0%-90%).
Experiments performed to assess the signal transduction response after growth factor simulation were performed as described for Example 1.

lymphocytes = assay: Cytokine response in lymphocytes from bone marrow samples of healthy donors (Example 4); type: cell-based, human; details: lymphocytes from healthy donor bone marrow (Example 4)
Experimental: To assess the signal transduction response after growth factor simulation, 100 to 200 μL of processed samples including about 2×10^6 WBC/100 μL were added to tubes and incubated at 37° C. for 30 minutes. For inhibition experiments, cells were incubated with 100 μM U0126, 1 μg/mL rapamycin, or both for at least 20 minutes prior to cytokine addition and in all cases for 30 min prior to formaldehyde addition. […] After stimulation the cells were immediately fixed by the addition of formaldehyde to a final concentration of 4% v/v and incubated for 10 minutes at room temperature. […]
First, doublets, aggregates, and debris were excluded by gating on single cell events in the SSC-Area versus SSC-Height histogram. […] Finally, these cells were further analyzed for cytokine-mediated increases in phosphorylation by constructing gates in the single parameter histograms (for positively and negatively stained events, i.e., for the phosphorylated and non-phosphorylated forms, respectively, of each protein) for pS6 (FIGS. 4D and 4G), pERK (FIGS. 4E and 4H), and pSTAT5 (FIGS. 4F and 4I). […] Following this gating scheme, data were analyzed by calculating the area under the curve (AUC), the frequency of positive-stained cells, and the median fluorescence intensity (MFI).

Molecule | pERK, AML Sample (pERK; patient AML2 (Example 3)) | pERK, AML Sample (first AML5 line) (pERK; patient AML5 (Example 3), normal value of this line is an S/N ratio) | pERK, AML Sample (pERK; patient AML6 (Example 3)) | pERK, AML Sample (pERK; patient AML11 (Example 3)) | pERK, AML Sample (pERK; patient AML12 (Example 3)) | pERK, AML Sample (pERK; patient AML13 (Example 3)) | Phosphorylation response in lymphocytes (lymphocytes) | pERK, AML Sample (pERK; patient AML1 (Example 3)) | pERK, AML Sample (pERK; patient AML5 (Example 3)) | pERK, AML Sample (pERK; patient AML9 (Example 3))
Stem Cell Factor [SCF] | 4.8 | 3.4 | 3.0 | 3.3 | 3.3 | 4.8 | lack of SCF's effect | – | – | –
FMS-Like Tyrosine Kinase 3 (FLT-3) ligand (protein, UniProt P49771 27-235, looked up) Fms-related tyrosine kinase 3 …: TQDCSFQHSPISSDFAVKIRELSDYLLQDYPVTVASNLQDEELCGGLWRLVLAQRWMERLKTVAGSKMQGLLERVNTEIHFVTKCAFQPPPSCLRFVQTNISRLLQETSEQLVALKPWITRQNFSRCLELQCQPDSSTLPPPWSPRPLEATAPTAPQPPLLLLLLLPVGLLLLAAAWCLHWQRTRRRTPRPGEQVPPVPSPQDLLLVEH | – | – | – | – | – | – | no response | 10.3 | 8.1 | 12.0
